Assay results from patent US10286022B2, “Medicinal composition of extract of seed of emblica officinalis and method of preparing the same” (priority 2013, dated 2019).

Columns and labels:
[1] = system: Triton WR 1339 induced dyslipidemia in Albino rats (Sprague Dawley strain); assay: Hypolipidemic activity of enriched amla seed extract, Triton WR 1339 model (Example 28); assay type: in vivo, rat
Protocol: Fifty two male Albino rats (Sprague Dawley strain) weighing approximately 250-300 gm were selected for the study. The animals were maintained at temperature of 24±2° C., 65% relative humidity and 12 hr light/dark cycle. The rats were acclimatized for two weeks and during this period they had access to standard pellet diet and water ad libitum. After two weeks of acclimatization, all the rats were fasted overnight before injecting Triton WR 1339 (Tyloxapol) and administration of test extracts/standard. The animals were divided into thirteen groups. Following treatment was given to overnight fasted rats: • Group I: Normal control (vehicle only). • Group II: Triton WR 1339 (300 mg/kg, intraperitoneal). • Group III: Triton WR 1339 (300 mg/kg, intraperitoneal) followed by administering sample 1 of Amla seed extract prepared as per example 27 on the same day of triton administration (0.5 mg/kg, per oral). • Group IV: Triton WR 1339 (300 mg/kg, intraperitoneal) followed by Amla seed extract prepared as per example 1 (0.5 mg/kg, per oral). • Group V: Triton WR 1339 (300 mg/kg, intraperitoneal) followed by sample 2 which is a 1:1 combination of amla seed extract (sample 1) prepared as per example 27 and product 1 (Hexane fraction) of amla seed extract prepared as per example 13 on the same day that Triton was administered (0.5 mg/kg, per oral). • Group VI: Triton WR 1339 (300 mg/kg, intraperitoneal) followed by administering product of amla seed extract (product 3) prepared as per example 13 on the same day of triton administration (0.5 mg/kg, per oral). • Group VII: Triton WR 1339 (300 mg/kg, intraperitoneal) followed by product 2 (50% methanol fraction+80% methanol fraction+water fraction) of amla seed extract prepared as per example 13 on the same day that triton was administered (0.5 mg/kg, per oral). • Group VIII: Triton WR 1339 (300 mg/kg, intraperitoneal) followed by product 1 (hexane fraction) of amla seed extract prepared as per example 13 on the same day that triton was administered (0.5 mg/kg, per oral). • Group IX: Triton WR 1339 (300 mg/kg, intraperitoneal) followed by water extract of dried amla seed powder prepared as per example 8 (0.5 mg/kg, per oral). • Group X: Triton WR 1339 (300 mg/kg, intraperitoneal) followed by methanol extract of dried amla seed powder prepared as per example 9 (0.5 mg/kg, per oral). • Group XI: Triton WR 1339 (300 mg/kg, intraperitoneal) followed by water extract of dried amla fruit powder prepared as per example 11 (0.5 mg/kg, per oral). • Group XII: Triton WR 1339 (300 mg/kg, intraperitoneal) followed by methanol extract of dried amla fruit powder prepared as per example 12 (0.5 mg/kg, per oral). • Group XIII: Triton WR 1339 (300 mg/kg, intraperitoneal) followed by atorvastatin administration (10 mg/kg, per oral), on the same day.
(§1) The animals were deprived of food for next 24 hours but had free access to water ad libitum. After 24 hours of drug treatment, 2 ml of blood sample was collected from the retro orbital plexus. The blood was allowed to clot and then centrifuged at 3000 rpm for 10 min and the serum was carefully drawn and collected into separate tubes. The serum was analyzed for total cholesterol, triglycerides, high density lipoproteins (HDL), low density lipoproteins (LDL) and very low density lipoproteins (VLDL) levels using auto-analyzer.

[2] = system: Triton WR 1339 induced dyslipidemia in Albino rats (Sprague Dawley strain); assay: Hypolipidemic activity of product 3 compared with amla seed powder, Triton WR 1339 model (Example 26); assay type: in vivo, rat
Protocol: Twenty eight male Albino rats (Sprague Dawley strain) weighing approximately 250-300 gm were selected for the study. The animals were maintained at temperature of 24±2° C., 65% relative humidity and 12 hr light/dark cycle. The rats were acclimatized for two weeks and during this period they had access to standard pellet diet and water ad libitum. After two weeks of acclimatization, all the rats were fasted overnight before injecting Triton WR 1339 (Tyloxapol) and administration of test extracts/standard. The animals were divided into seven groups. Following treatment was given to overnight fasted rats: • Group I: Normal control (vehicle only) • Group II: Triton WR 1339 (300 mg/kg, intraperitoneal) • Group III: Triton WR 1339 (300 mg/kg, intraperitoneal) followed by administering product of amla seed extract (product 3) on the same day of triton administration (0.5 mg/kg, per oral) • Group IV: Triton WR 1339 (300 mg/kg, intraperitoneal) followed by product 2 (50% methanol fraction+80% methanol fraction+water fraction) of amla seed extract on the same day that Triton was administered (0.5 mg/kg, per oral) • Group V: Triton WR 1339 (300 mg/kg, intraperitoneal) followed by product 1 (Hexane fraction) of amla seed extract on the same day that Triton was administered (0.5 mg/kg, per oral) • Group VI: Triton WR 1339 (300 mg/kg, intraperitoneal) followed by powder of dried amla seed prepared as per Example 7 (0.5 mg/kg, per oral). The powder of dried amla seed was administered on the same day as triton was administered. • Group VII: Triton WR 1339 (300 mg/kg, intraperitoneal) followed by atorvastatin administration (10 mg/kg, per oral), on the same day.
as §1

[3] = 24 h after Triton i.p. + 10 mg/kg p.o.

CC(C)c1c(C(=O)Nc2ccccc2)c(-c2ccccc2)c(-c2ccc(F)cc2)n1CC[C@@H](O)C[C@@H](O)CC(=O)O [Atorvastatin] was tested, and the “HDL After” value [1, 3] was 35.1 mg/dL, the “LDL After” value [1, 3] was 49.39 mg/dL and the “TC After” value [1, 3] was 124.54 mg/dL. The “TG After” value [1, 3] was 200.25 mg/dL, the “VLDL After” value [1, 3] was 40.06 mg/dL and the “HDL Before” value ([1]; baseline, 10 mg/kg p.o. group) was 32.41 mg/dL. The “LDL Before” value ([1]; baseline, 10 mg/kg p.o. group) was 61.7 mg/dL, the “TC Before” value ([1]; baseline, 10 mg/kg p.o. group) was 104.21 mg/dL and the “TG Before” value ([1]; baseline, 10 mg/kg p.o. group) was 50.54 mg/dL. For the same molecule, the “VLDL Before” value ([1]; baseline, 10 mg/kg p.o. group) was 10 mg/dL, the “HDL After” value [2, 3] was 38.46 mg/dL and the “LDL After” value [2, 3] was 44.30 mg/dL. For the same molecule, the “TC After” value [2, 3] was 121.21 mg/dL, the “TG After” value [2, 3] was 192.25 mg/dL and the “VLDL After” value [2, 3] was 44.30 mg/dL. The “HDL Before” value ([2]; baseline, 10 mg/kg p.o. group) was 35.54 mg/dL, the “LDL Before” value ([2]; baseline, 10 mg/kg p.o. group) was 58.22 mg/dL and the “TC Before” value ([2]; baseline, 10 mg/kg p.o. group) was 103.47 mg/dL. The “TG Before” value ([2]; baseline, 10 mg/kg p.o. group) was 48.54 mg/dL and the “VLDL Before” value ([2]; baseline, 10 mg/kg p.o. group) was 58.22 mg/dL.
